The record followed here is ChEMBL document CHEMBL1201862, “PubChem BioAssay data set” (2004).

Some test systems named below: NCI-H522; IGROV-1; U-251; HT-29; UO-31; HOP-92; SR; ACHN; OVCAR-8; HCT-15; LOX IMVI; SNB-75; EKVX; A498; SW-620; SN12C; HOP-62.
Common to all, as to test: NCI anticancer screen, dose series, 48 h

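Following 48 hours of exposure in 96-well plates, responses at five concentrations were used to interpolate endpoints linearly. Here, GI50 denotes the concentration required for 50% inhibition of growth.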 Calls of active or inactive are those of the source. Rule as the data show it: active = GI50 up to about 1.1 µM and inactive = higher. A value given as a limit tells only on which side of the number the result lay.

Turning to `Clc1ccc(CN2COc3c(cc(Cl)c4cccnc34)C2)cc1`, the GI50 in the assay on NCI-H522 was 1.6 µM (inactive); in the assay on IGROV-1 it was 2.36 µM (inactive); in the assay with U-251 it was 2.32 µM (inactive); in the assay with HT-29 it was 11.9 µM (inactive); with UO-31 it was 0.649 µM (active); in the assay on HOP-92 it was 3.64 µM (inactive). For the same compound, the GI50 in the assay with SR was 1.91 µM (inactive); with ACHN, 1.74 µM (inactive); with OVCAR-8 it was 2.04 µM (inactive); in the assay on HCT-15, 0.456 µM; in the assay on LOX IMVI, 1.38 µM (inactive); in the assay on SNB-75 it was 3.4 µM (inactive). For the same compound, the GI50 in the assay on EKVX was 4.7 µM (inactive); with A498 it was 12.1 µM (inactive); with SW-620, 2.94 µM (inactive); in the assay with SN12C, 4.23 µM (inactive); in the assay on HOP-62 it was 1.5 µM (inactive).

`CC(C)(Oc1ccc2c(=O)cc(-c3ccccc3)oc2c1)C(=O)Nc1c(Cl)cccc1Cl`: the GI50 in the assay on NCI-H522 is 38 µM (inactive); in the assay on IGROV-1, > 100 µM (inactive); in the assay with U-251 it was > 100 µM (inactive); with HT-29, > 100 µM (inactive); in the assay on UO-31, 9.66 µM (inactive); with HOP-92 it was 20.1 µM (inactive). Also, the GI50 in the assay with SR is > 100 µM (inactive); with OVCAR-8 it was 29.4 µM (inactive); with HCT-15, 76.7 µM; in the assay on LOX IMVI, > 100 µM (inactive); with EKVX it was > 100 µM (inactive); with A498, > 100 µM (inactive). For the same compound, the GI50 in the assay on SW-620 and with HOP-62 was > 100 µM (inactive) in each case.

For the compound `Nc1nc2c(nnn2C2C=C(CO)C(O)C2O)c(=O)[nH]1` (stereo not drawn), the GI50 in the assay on NCI-H522, in the assay with IGROV-1, in the assay with U-251, with HT-29, in the assay with UO-31 and in the assay with HOP-92 was > 100 µM (inactive) throughout. Moreover, the GI50 is > 100 µM (inactive) in the assay with SR; > 100 µM (inactive) in the assay on ACHN; > 100 µM (inactive) in the assay with OVCAR-8; > 100 µM in the assay on HCT-15; 27.9 µM (inactive) in the assay on LOX IMVI; > 100 µM (inactive) in the assay on SNB-75. Moreover, the GI50 in the assay with EKVX is > 100 µM (inactive); in the assay with A498, > 100 µM (inactive); in the assay with SW-620, 66.4 µM (inactive); in the assay with SN12C, 94.4 µM (inactive); in the assay with HOP-62, > 100 µM (inactive).

In the case of `COC(=O)C1C(O)CC(c2ccccn2)N(Cc2ccccc2)C1c1ccccn1` (stereo not drawn), the GI50 with NCI-H522, with IGROV-1, with U-251, in the assay with HT-29, in the assay on UO-31 and with HOP-92 was > 100 µM (inactive) in each case. Moreover, the GI50 is > 100 µM (inactive) in the assay on ACHN; > 100 µM (inactive) with OVCAR-8; > 100 µM in the assay on HCT-15; > 100 µM (inactive) with LOX IMVI; > 100 µM (inactive) in the assay on SNB-75; > 100 µM (inactive) in the assay with EKVX. For the same compound, the GI50 in the assay on A498, in the assay with SW-620, with SN12C and with HOP-62 was > 100 µM (inactive) each time.

With `CC1=C(C(=O)Nc2cccc(C(F)(F)F)c2)C(c2ccccc2F)C(C(=O)Nc2cccc(C(F)(F)F)c2)=C(C)N1`, the GI50 was 4.79 µM (inactive) in the assay with NCI-H522; 11.3 µM (inactive) with IGROV-1; 8.69 µM (inactive) with U-251; 3.66 µM (inactive) in the assay on HT-29; 4.83 µM (inactive) in the assay on UO-31; 2.8 µM (inactive) with HOP-92. Besides, the GI50 was 4.2 µM (inactive) with ACHN; 9.62 µM (inactive) in the assay on OVCAR-8; 5.37 µM (inactive) in the assay with LOX IMVI; 9.57 µM (inactive) with SNB-75; 3.94 µM (inactive) in the assay on EKVX; 9.16 µM (inactive) in the assay with A498. Moreover, the figures for the GI50 with SW-620, with SN12C and with HOP-62 were 7.08 µM (inactive), 7.96 µM (inactive) and 12.9 µM (inactive), respectively.

With `O=C(O)CN(c1ccc(Cl)cc1)S(=O)(=O)c1ccccc1`, the GI50 in the assay on NCI-H522, in the assay on IGROV-1, in the assay on U-251, with HT-29, in the assay with UO-31 and with HOP-92 was > 100 µM (inactive) each time. The GI50 in the assay on ACHN was > 100 µM (inactive); in the assay with OVCAR-8 it was > 100 µM (inactive); with HCT-15, > 100 µM; in the assay on LOX IMVI, > 100 µM (inactive); in the assay with SNB-75, > 100 µM (inactive); with EKVX it was > 100 µM (inactive). For the same compound, the GI50 with A498, in the assay with SW-620 and in the assay with SN12C was > 100 µM (inactive) each time.

For `CO/C=C/c1cc2c(cc1C(OC)OC)OCO2`, the GI50 with NCI-H522 was > 100 µM (inactive); in the assay on IGROV-1, 60.1 µM (inactive); in the assay on U-251, 53.3 µM (inactive); in the assay on HT-29 it was 39.4 µM (inactive); in the assay on UO-31, 26.5 µM (inactive); with HOP-92, 40.2 µM (inactive). The GI50 in the assay on SR is 44.6 µM (inactive); with ACHN, 83.4 µM (inactive); with OVCAR-8, > 100 µM (inactive); with SNB-75 it was 16.4 µM (inactive); in the assay with EKVX, 69.7 µM (inactive); in the assay with SW-620 it was 50 µM (inactive). Further, the GI50 in the assay with SN12C was 79.3 µM (inactive); in the assay on HOP-62 it was 26.7 µM (inactive).

Regarding `CC1=NN(C(=O)Cc2ccccc2)C(=O)/C1=C\c1ccc(O)cc1`, the GI50 in the assay on NCI-H522, in the assay on IGROV-1, in the assay with U-251, in the assay on HT-29, in the assay on UO-31 and in the assay with HOP-92 was > 100 µM (inactive) throughout. Moreover, the GI50 is > 100 µM (inactive) with ACHN; > 100 µM (inactive) with OVCAR-8; > 100 µM in the assay on HCT-15; > 100 µM (inactive) with LOX IMVI; > 100 µM (inactive) with EKVX; > 100 µM (inactive) in the assay with A498. Besides, the GI50 in the assay on SW-620, in the assay with SN12C and in the assay with HOP-62 was > 100 µM (inactive) throughout.

Consider `CC1=C(C(=O)Nc2ccc([N+](=O)[O-])cc2)C(c2ccc(N(C)C)cc2)C(C(=O)Nc2ccc([N+](=O)[O-])cc2)=C(C)N1`, for which the GI50 with NCI-H522 was 11 µM (inactive); in the assay on IGROV-1, 19.1 µM (inactive); with U-251, 21.9 µM (inactive); in the assay with HT-29, 23.4 µM (inactive); in the assay on UO-31, 21.5 µM (inactive); in the assay on HOP-92, 12.1 µM (inactive). In addition, the GI50 in the assay on ACHN is 0.0475 µM (active); in the assay with OVCAR-8, 26.6 µM (inactive); in the assay on LOX IMVI, 9.04 µM (inactive); in the assay with SNB-75, 13.7 µM (inactive); with EKVX it was 25.4 µM (inactive); in the assay on A498, 20.7 µM (inactive). Further, the GI50 is 23.9 µM (inactive) in the assay with SW-620, > 10 µM (inactive) in the assay with SN12C and 12.6 µM (inactive) in the assay on HOP-62.

As for `CN1CC(=O)N(C)c2ncn(Cc3ccccc3)c2C1=O`, the GI50 in the assay on IGROV-1, with U-251, in the assay with HT-29, in the assay on UO-31, in the assay on SR and in the assay with ACHN was > 100 µM (inactive) each time. Moreover, the GI50 in the assay on OVCAR-8 is > 100 µM (inactive); in the assay with HCT-15, > 100 µM; in the assay with LOX IMVI, > 100 µM (inactive); in the assay with SNB-75 it was > 100 µM (inactive); in the assay with EKVX, > 100 µM (inactive); in the assay with A498, > 100 µM (inactive). For the same compound, the GI50 in the assay on SW-620 and with SN12C was > 100 µM (inactive) throughout.

As to `CCN(CC)c1c(C(=O)/C=C/c2ccc(OC)cc2)c(-c2ccccc2)nn(C)c1=O`, the GI50 is 19.2 µM (inactive) in the assay on IGROV-1; 13.5 µM (inactive) with U-251; 9.51 µM (inactive) in the assay on HT-29; 36.6 µM (inactive) in the assay on UO-31; 6.07 µM (inactive) in the assay with HOP-92; 5.55 µM (inactive) in the assay on SR. In addition, the GI50 in the assay with ACHN is 10.9 µM (inactive); with OVCAR-8, 22.2 µM (inactive); in the assay with LOX IMVI, 14.9 µM (inactive); in the assay on EKVX, 8 µM (inactive); in the assay with A498, 20.9 µM (inactive); in the assay with SW-620, 26.5 µM (inactive). Moreover, the figures for the GI50 with SN12C and in the assay on HOP-62 were 21 µM (inactive) and 45.9 µM (inactive), respectively.

For the compound `COC(=O)c1ccc(Cc2ccc(C(=O)OC)o2)o1`, the GI50 in the assay with NCI-H522, with IGROV-1, with U-251, with HT-29, with HOP-92 and with SR was > 378 µM (inactive) in each case. The GI50 is > 378 µM (inactive) with ACHN; > 378 µM (inactive) with OVCAR-8; > 378 µM in the assay with HCT-15; > 378 µM (inactive) in the assay on LOX IMVI; > 378 µM (inactive) with EKVX; > 378 µM (inactive) in the assay on SW-620. The GI50 in the assay with SN12C and in the assay with HOP-62 was > 378 µM (inactive) throughout.

As for `COC(=O)C(=O)C(C(=O)C1=NS(=O)(=O)c2cc(S(N)(=O)=O)c(Cl)cc2N1)c1nc2ccc(C(=O)c3ccccc3)cc2nc1O` (stereo not drawn), the GI50 in the assay on NCI-H522 was 37.2 µM (inactive); with IGROV-1, > 100 µM (inactive); in the assay with U-251, > 100 µM (inactive); in the assay on HT-29 it was > 100 µM (inactive); in the assay on UO-31, 79.4 µM (inactive); in the assay with SR it was 47.9 µM (inactive). Also, the GI50 in the assay on ACHN was > 100 µM (inactive); with OVCAR-8, 59 µM (inactive); in the assay with HCT-15 it was > 100 µM; with EKVX, > 100 µM (inactive); in the assay with A498 it was 51.5 µM (inactive); in the assay with SW-620 it was > 100 µM (inactive). The GI50 with SN12C was > 100 µM (inactive).
